Legend:
[1] = target: Adenosine receptor A1 (Homo sapiens) (UniProt P30542); assay: A1 (h) CEREP ligand profiling; settings: filed as antagonist, Compound concentration 10.0 uM
[2] = target: Histone acetyltransferase KAT2B (Homo sapiens) (UniProt Q92831); assay: PCAF (HAT) CEREP ligand profiling; settings: Compound concentration 10.0 uM
CHL-1 = assay: CHL1 cell line Proliferation assay; type: functional, Homo sapiens; settings: Compound concentration 10 uM; time 5 day
NCI-H1417 = assay: H1417 cell line Proliferation assay; type: functional, Homo sapiens; settings: Compound concentration 10 uM; time 4 day
MDA-MB-231 = assay: MDA_MB_231 cell line Proliferation assay; type: functional, Homo sapiens; settings: Compound concentration 10 uM; time 5 day
GA-10 = assay: GA10 cell line Proliferation assay; type: functional, Homo sapiens; settings: Compound concentration 10 uM; time 3 day
Jurkat = assay: Jurkat cell line Proliferation assay; type: functional, Homo sapiens; settings: Compound concentration 10 uM; time 3 day
[3] = target: T1, 5-hydroxytryptamine receptor 3A (Homo sapiens) (UniProt P46098); settings: Compound concentration 10.0 uM
T1 sequence (whole entry): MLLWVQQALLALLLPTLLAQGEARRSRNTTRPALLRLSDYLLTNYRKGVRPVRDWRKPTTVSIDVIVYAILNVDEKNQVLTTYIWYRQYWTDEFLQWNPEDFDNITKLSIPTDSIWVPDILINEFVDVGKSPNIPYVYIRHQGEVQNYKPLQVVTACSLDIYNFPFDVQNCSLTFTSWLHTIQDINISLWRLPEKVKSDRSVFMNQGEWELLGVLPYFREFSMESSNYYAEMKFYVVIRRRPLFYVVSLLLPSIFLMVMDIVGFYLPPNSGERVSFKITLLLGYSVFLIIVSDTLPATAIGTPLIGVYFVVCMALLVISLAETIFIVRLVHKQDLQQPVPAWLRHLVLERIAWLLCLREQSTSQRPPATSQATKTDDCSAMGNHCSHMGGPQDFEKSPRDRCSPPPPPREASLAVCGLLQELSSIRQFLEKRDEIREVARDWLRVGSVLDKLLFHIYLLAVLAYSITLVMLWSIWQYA

[4] = target: Activin receptor type-1 (Homo sapiens) (UniProt Q04771); settings: Compound concentration 1000.0 nM
Chain of Activin receptor type-1 (Homo sapiens) (Q04771 whole entry): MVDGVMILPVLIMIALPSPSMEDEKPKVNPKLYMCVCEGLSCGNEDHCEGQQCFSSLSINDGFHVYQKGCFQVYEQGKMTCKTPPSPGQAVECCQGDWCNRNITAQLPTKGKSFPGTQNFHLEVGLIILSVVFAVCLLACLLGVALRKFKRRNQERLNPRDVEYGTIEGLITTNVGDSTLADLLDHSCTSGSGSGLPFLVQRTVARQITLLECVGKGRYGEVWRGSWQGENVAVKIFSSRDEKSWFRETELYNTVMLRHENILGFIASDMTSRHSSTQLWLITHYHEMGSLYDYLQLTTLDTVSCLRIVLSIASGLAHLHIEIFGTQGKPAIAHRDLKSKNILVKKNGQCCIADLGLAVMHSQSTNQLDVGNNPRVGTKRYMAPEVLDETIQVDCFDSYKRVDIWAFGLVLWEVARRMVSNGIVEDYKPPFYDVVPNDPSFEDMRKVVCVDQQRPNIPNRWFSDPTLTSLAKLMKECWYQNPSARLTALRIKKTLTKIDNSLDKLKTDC

Chain of Adenosine receptor A1 (Homo sapiens) (P30542 whole entry): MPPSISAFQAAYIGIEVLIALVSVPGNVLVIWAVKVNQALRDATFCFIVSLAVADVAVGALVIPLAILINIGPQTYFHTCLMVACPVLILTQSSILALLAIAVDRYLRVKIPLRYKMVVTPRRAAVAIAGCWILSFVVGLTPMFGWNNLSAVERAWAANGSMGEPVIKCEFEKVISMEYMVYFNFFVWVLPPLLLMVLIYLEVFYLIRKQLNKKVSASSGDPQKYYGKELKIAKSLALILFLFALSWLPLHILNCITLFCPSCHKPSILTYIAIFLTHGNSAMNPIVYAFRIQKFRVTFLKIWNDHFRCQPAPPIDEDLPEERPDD
Chain of Histone acetyltransferase KAT2B (Homo sapiens) (Q92831 whole entry, looked up): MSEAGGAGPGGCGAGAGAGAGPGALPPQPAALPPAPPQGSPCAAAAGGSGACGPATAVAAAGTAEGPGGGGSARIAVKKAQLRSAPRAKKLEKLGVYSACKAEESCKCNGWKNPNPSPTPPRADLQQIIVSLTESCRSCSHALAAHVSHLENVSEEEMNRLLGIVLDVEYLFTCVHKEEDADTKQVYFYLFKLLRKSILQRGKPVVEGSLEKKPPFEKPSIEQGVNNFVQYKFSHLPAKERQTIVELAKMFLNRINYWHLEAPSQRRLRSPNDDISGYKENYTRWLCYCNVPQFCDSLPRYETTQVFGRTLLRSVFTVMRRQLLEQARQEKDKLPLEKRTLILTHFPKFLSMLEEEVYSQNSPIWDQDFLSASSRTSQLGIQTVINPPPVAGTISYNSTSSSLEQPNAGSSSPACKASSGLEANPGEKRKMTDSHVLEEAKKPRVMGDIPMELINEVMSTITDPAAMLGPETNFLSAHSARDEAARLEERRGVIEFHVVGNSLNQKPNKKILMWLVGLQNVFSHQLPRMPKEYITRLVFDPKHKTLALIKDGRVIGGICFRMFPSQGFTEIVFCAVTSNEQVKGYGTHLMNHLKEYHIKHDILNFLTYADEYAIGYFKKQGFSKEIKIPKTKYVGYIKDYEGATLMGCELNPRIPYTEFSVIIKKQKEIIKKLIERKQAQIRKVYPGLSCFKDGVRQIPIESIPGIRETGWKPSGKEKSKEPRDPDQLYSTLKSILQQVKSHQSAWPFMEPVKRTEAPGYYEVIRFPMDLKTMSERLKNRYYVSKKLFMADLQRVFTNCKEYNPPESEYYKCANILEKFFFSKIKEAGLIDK

| SMILES | inhibition [1] [%] | inhibition [2] [%] | Cell Proliferation EC50 (CHL-1) [µM] | Cell Proliferation EC50 (NCI-H1417) [µM] | Cell Proliferation EC50 (MDA-MB-231) [µM] | Cell Proliferation EC50 (GA-10) [µM] | Cell Proliferation EC50 (Jurkat) [µM] | inhibition [3] [%] | residual activity [4] [%] |
| --- | --- | --- | --- | --- | --- | --- | --- | --- | --- |
| CNC(=O)Nc1ccc2c(c1)CC[C@@]21OC(=O)N(CC(=O)N(Cc2ccc(F)cc2)[C@@H](C)C(F)(F)F)C1=O [A-485] | 9 | 1 | 0.366 | >10 | >10 | 1.059 | 4.03 | -8.97 | – |
| CNC(=O)Nc1ccc2c(c1)[C@@]1(CC2)OC(=O)N(CC(=O)N(Cc2ccc(F)cc2)[C@@H](C)C(F)(F)F)C1=O [A-486] | – | – | – | – | – | – | – | – | 89 |

Source: ChEMBL document CHEMBL4507259 (2021)
